We go through three compounds from patent US20170319669A1, “METHOD OF ENHANCING VIRAL-MEDIATED GENE DELIVERY” (Wayne State University, priority 2016, published 2017).

Series [1] has as its system retinal bipolar cells. Kind of series: AAV-mediated transduction efficiency (mCherry expression) in retinal bipolar cells after intravitreal co-injection of rAAV2 vector with proteasome inhibitor. The series is classed as in vivo, C57BL/6J mice. To be noted: for transduction efficiency in retinal bipolar cells: about one month after virus injection; for expression (fluorescence intensity) of mCherry in bipolar cells: intravitreal. An excerpt:
FIG. 1A-B is a series of photographs and a graph depicting the effects of proteasomes on the AAV-mediated expression of transgene (mCherry) in retinal bipolar cells one month after virus injection. FIG. 1A: Representative images of virus transduced retinal bipolar cells. […] DOX: doxorubicin; Acla: Aclarubicin; MG: MG132. FIG. 1B. Statistical data for evaluating the fluorescence intensity of mCherry in bipolar cells one month after virus injection.
FIG. 2A-B is a series of photographs and a graph depicting the effects of DOX on the AAV-mediated expression of transgene (mCherry) in retinal bipolar cells three months after virus injection. FIG. 2A. Representative images of virus transduced retinal bipolar cells three months after virus injection. Virus vectors were co-injected with DOX at different concentrations. FIG. 2B. Statistical data for evaluating the fluorescence intensity of mCherry in bipolar cells three months after virus injection.

Series [2] deals with retinal ganglion cells. Kind of series: Density of retinal ganglion cells (DAPI staining) after virus injection with and without DOX. The series is classed as in vivo, C57BL/6J mice. As to conditions: three months after virus injection; 300 μM and 500 μM DOX. An excerpt:
FIG. 4A-B is a series of photographs and a graph, depicting the effects of DOX on retinal ganglion cells. FIG. 4A. Representative images for evaluating the density of retinal ganglion cells with DAPI staining after virus transduction in bipolar cells with and without DOX at different concentrations. Animals were euthanized one and three months after virus injection. FIG. 4B. Statistical data for evaluating the density of retinal ganglion cells one and three months after virus injection with and without doxorubicin (DOX).

Peptide text beside a SMILES is read from it. * marks the point of attachment. Cbz = O=C(OCc1ccccc1)*

In the case of `CC(C)C[C@@H](C=O)NC(=O)[C@H](CC(C)C)NC(=O)[C@H](CC(C)C)NC(=O)OCc1ccccc1` [MG132] (Cbz-Leu-Leu-Leu-aldehyde), in series [1] (MG132 100 μM, 200 μM, 500 μM), the “transduction efficiency in retinal bipolar cells” value is on record as “not found to enhance the transduction efficiency”.

For the compound `CC[C@@]1(O)C[C@H](O[C@H]2C[C@H](N(C)C)[C@H](O[C@H]3C[C@H](O)[C@H](O[C@H]4CCC(=O)[C@H](C)O4)[C@H](C)O3)[C@H](C)O2)c2c(cc3c(c2O)C(=O)c2c(O)cccc2C3=O)[C@H]1C(=O)OC` [aclarubicin], the “transduction efficiency in retinal bipolar cells” value in series [1] (aclarubicin 50 μM, 100 μM) was “not found to enhance the transduction efficiency”.

Turning to `COc1cccc2c1C(=O)c1c(O)c3c(c(O)c1C2=O)C[C@@](O)(C(=O)CO)C[C@@H]3O[C@H]1C[C@H](N)[C@H](O)[C@H](C)O1` [doxorubicin], the “retinal ganglion cell density vs control” value in series [2] is reported as “statistically lower than that of control”. In addition, the “transduction efficiency in retinal bipolar cells” value in series [1] (doxorubicin from 200 μM to 800 μM) is listed as “concentration-dependent increase”. Also, the “optimal concentration to enhance the AAV transduction efficiency” value in series [1] (intravitreal co-injection with rAAV2 vector, mice) was 500 µM. The “expression (fluorescence intensity) of mCherry in bipolar cells” value in series [1] (one month after virus injection, co-injection of DOX at concentrations ≧300 μM, mice) is “significantly increased”; in series [1] (three months after virus injection, co-injection of DOX at concentrations ≧200 μM, mice), “significantly increased”.
